Test results as given in patent US20220211657A1, “METHODS OF TREATING GASTROINTESTINAL CANCERS AND TUMORS THEREOF USING COMBINATION THERAPY” (GEORGETOWN UNIVERSITY, priority 2019, published 2022).

Columns and labels:
[1] = test system: metastatic pancreatic cancer; details: first-line standard of care; cited from earlier work
BRCA1/2-mutated tumors = details: out of 24 patients with BRCA1/2-mutated tumors; cited from earlier work
[2] = test system: BRCA1/2-mutated pancreatic cancer; details: cited from earlier work
[3] = Phase I dose escalation of veliparib plus FOLFOX (dose limiting toxicities, recommended Phase II dose); type: in vivo
Procedure: The study was designed as a single center, Phase I/II, open label study of veliparib plus FOLFOX. At the time of study initiation, the dose and schedule for modified FOLFOX (de Gramont et al., “Leucovorin and Fluorouracil With or Without Oxaliplatin as First-Line Treatment in Advanced Colorectal Cancer,” J. Clin. Oncol. 18:2938-2947 (2000), which is hereby incorporated by reference in its entirety) was used (5-fluorouracil bolus 400 mg/m^2 Day 1; leucovorin 400 mg/m^2 Day 1; oxaliplatin 85 mg/m^2 Day 1; and 5-fluorouracil 2400 mg/m^2 continuous infusion over 46 hours, Days 1-3). Each cycle was 14 days. […] With regards to the veliparib, for the Phase I portion, the dose of veliparib was escalated in a standard 3+3 design from the lowest dose of 40 mg twice a day (BID) days 1-7 of each 14-day cycle. Dose levels were 40 mg, 60 mg, 80 mg, 100 mg, 150 mg, 200 mg, and 250 mg. For the Phase II portion, the recommended Phase II dose (RP2D) was 200 mg of veliparib, though the protocol did allow for stepwise de-escalation to 150 mg and then to 100 mg for toxicity after the first cycle. […] Tumor response was assessed radiographically every 8-12 weeks using Response Evaluation Criteria in Solid Tumors criteria version 1.1 (Eisenhauer et al., “New Response Evaluation Criteria in Solid Tumours: Revised RECIST Guideline (Version 1.1),” Eur. J. Cancer 45:228-247 (2009), which is hereby incorporated by reference in its entirety). […] The primary objective of the Phase I portion was to determine the recommended Phase II dose, with the primary endpoint being adverse events, as measured by the National Cancer Institute Common Terminology Criteria for Adverse Events, Version 4.03, which is hereby incorporated by reference in its entirety. […]
The primary objective of the Phase I portion of the trial was to determine the recommended Phase II dose, by assessing the safety and tolerability as determined by adverse events, defined by the National Cancer Institute Common Terminology Criteria for Adverse Events, Version 4.03, which is hereby incorporated by reference in its entirety. […]

[4] = Pharmacokinetic assessment of veliparib (Day 1, 3, 7 samples); type: in vivo, human; details: 14 subjects in 5 dosing cohorts
Procedure: For the Phase I portion of the study, plasma samples were obtained from patients on Day 1 (pre-dose), Day 3, and Day 7 for pharmacokinetic (PK) assessment of veliparib. Results were compared to historical controls to identify any effect on veliparib pharmacokinetics by oxaliplatin or 5-fluorouracil. […] Next generation sequencing (NGS) of cancer-related genes was performed on tumor samples. Results from patients were captured, if ordered by the treating physician prior to enrollment, and sequencing was performed commercially by Foundation Medicine (FM), Caris Life Sciences, or through commercial germline testing labs such as Myriad or Invitae. […] Patients were defined as harboring HR-DDR mutations if a known pathogenic mutation in one of the HR-DDR genes (including but not limited to: ARID1A, ATM, ATRX, MRE11A, NBN, PTEN, RAD50/51/51B, BARD1, BLM, BRCA1, BRCA2, BRIP1, FANCA/C/D2/E/F/G/L, PALB2, WRN, CHEK2, CHEK1, BAP1, FAM175A, SLX4, MLL2, or XRCC) was identified in a blood sample (germline) or tumor sample (somatic).

Q: For Nc1ccn([C@@H]2O[C@H](CO)[C@@H](O)C2(F)F)c(=O)n1 [gemcitabine], which response rate [1] is on record?
A: 7%

Q: For O=C(c1cc(Cc2n[nH]c(=O)c3ccccc23)ccc1F)N1CCN(C(=O)C2CC2)CC1 [olaparib], which patients who responded (BRCA1/2-mutated tumors) is on record?
A: 4 patients

Q: Which “patients who did not respond to platinum but did respond” value ([2]; in vivo) does the source give for CNCc1ccc(-c2[nH]c3cc(F)cc4c3c2CCNC4=O)cc1 [rucaparib] here?
A: two

Q: What about the responses ([2]; out of 19 patients with BRCA1/2-mutated pancreatic cancer) of the same compound?
A: 4

Q: For C[C@]1(c2nc3c(C(N)=O)cccc3[nH]2)CCCN1 [veliparib], which “protocol-defined dose limiting toxicity” value ([3]; human, in vivo) is on record?
A: treatment delay of >3 weeks

Q: What about the dose limiting toxicities ([3]; in vivo) of the same compound?
A: one

Q: What about the “recommended Phase II dose” value ([3]; veliparib BID days 1-7 of each 14-day cycle plus FOLFOX) of the same compound?
A: 200 mg

Q: And the “impact of co-administration of FOLFOX on veliparib pharmacokinetics” value [4]?
A: no apparent impact
